These results are taken from the supplement of paper PMC5321775.

Assay [1] relates to Caenorhabditis briggsae JU1348. Put plainly: mean adult lifespan of treated plate (days); higher = longer lifespan. The following applies: exposure: chronic from day 1 of adulthood. How it is done: (§1)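 Dose-response lifespan assays in three C. briggsae strains (AF16, HK104, JU1348), run per plate (35-40 animals) on NGM with live OP50-1 and 51 uM FUdR at 20 C. Compound was added to the plate surface and worms were exposed from the first day of adulthood.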

The test system of assay [2] is Caenorhabditis briggsae HK104. The description is as above. The following applies: exposure: chronic from day 1 of adulthood. How it is done: as §1
In assay [3] the test system is Caenorhabditis briggsae AF16. Described as above. The following applies: exposure: chronic from day 1 of adulthood. How it is done: as §1
Assay [4] concerns Caenorhabditis elegans N2. Put plainly: mean adult lifespan of treated cohort (days); higher = longer lifespan. The following applies: exposure: chronic from day 1 of adulthood, single dose per compound (concentration not stated in sheet). Here is the method:
(§2)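 Caenorhabditis lifespan assay (CITP). Synchronised hermaphrodites were moved on the first day of adulthood onto 35 mm NGM plates with live E. coli OP50-1 and 51 uM FUdR, with the compound spread on the plate. Worms were kept at 20 C and scored for survival.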

The subject of assay [5] is Caenorhabditis elegans JU775. The assay is described as above. The following applies: exposure: chronic from day 1 of adulthood, single dose per compound (concentration not stated in sheet). Here is the method: as §2
Assay [6] concerns Caenorhabditis briggsae JU1348. Described as above. The following applies: exposure: chronic from day 1 of adulthood, single dose per compound (concentration not stated in sheet). How it is done:
as §2

Assay [7] concerns Caenorhabditis briggsae HK104. The description is as above. The following applies: exposure: chronic from day 1 of adulthood, single dose per compound (concentration not stated in sheet). How it is done: as §2
Assay [8] deals with Caenorhabditis elegans MY16. The assay is described as above. The following applies: exposure: chronic from day 1 of adulthood, single dose per compound (concentration not stated in sheet). How it is done:
as §2

The subject of assay [9] is Caenorhabditis briggsae AF16. Described as above. The following applies: exposure: chronic from day 1 of adulthood, single dose per compound (concentration not stated in sheet). How it is done: as §2
The test system of assay [10] is Caenorhabditis elegans N2. Put plainly: Kaplan-Meier median lifespan of treated cohort (days); higher = longer lifespan. The following applies: exposure: chronic from day 1 of adulthood, single dose per compound (concentration not stated in sheet). How it is done:
as §2

In assay [11] the test system is Caenorhabditis elegans JU775. The assay is described as above. The following applies: exposure: chronic from day 1 of adulthood, single dose per compound (concentration not stated in sheet). How it is done: as §2
The test system of assay [12] is Caenorhabditis briggsae JU1348. Described as above. The following applies: exposure: chronic from day 1 of adulthood, single dose per compound (concentration not stated in sheet). Here is the method: as §2
The test system of assay [13] is Caenorhabditis briggsae HK104. Described as above. The following applies: exposure: chronic from day 1 of adulthood, single dose per compound (concentration not stated in sheet). How it is done:
as §2

Assay [14] has as its system Caenorhabditis elegans MY16. The description is as above. The following applies: exposure: chronic from day 1 of adulthood, single dose per compound (concentration not stated in sheet). Here is the method: as §2
Assay [15] has as its system Caenorhabditis briggsae AF16. The description is as above. The following applies: exposure: chronic from day 1 of adulthood, single dose per compound (concentration not stated in sheet). How it is done: as §2
Assay [16] deals with Caenorhabditis briggsae JU1348. Put plainly: Kaplan-Meier median lifespan of treated plate (days); higher = longer lifespan. The following applies: exposure: chronic from day 1 of adulthood. How it is done: as §1
The subject of assay [17] is Caenorhabditis briggsae HK104. The assay is described as above. The following applies: exposure: chronic from day 1 of adulthood. Here is the method: as §1
Assay [18] concerns Caenorhabditis briggsae AF16. The description is as above. The following applies: exposure: chronic from day 1 of adulthood. How it is done:
as §1

± gives the standard deviation of the averaged measurements or the uncertainty stated by the source.

Take `O=C(O)CCC(=O)C(=O)O` [alpha-ketoglutaric acid]: the “mean adult lifespan of treated plate” value in [1] (100 µM) stood at 23.3 ± 1.4; in assay [1] (500 µM), 23.5 ± 1.1; in assay [1] (800 µM), 22.7 ± 1.1; in assay [1] (1000 µM) it was 25.5 ± 1.3; in [1] (4000 µM) it was 24.6 ± 1.9; in assay [1] (16000 µM), 14.7 ± 1.2. Also, the “mean adult lifespan of treated plate” value in assay [1] (40000 µM) is 11.7 ± 0.54; in [2] (100 µM), 33.8 ± 1.2; in assay [2] (500 µM), 35.3 ± 1.6; in [2] (800 µM), 33.7 ± 1.4; in [2] (1000 µM), 36.7 ± 1.3; in [2] (4000 µM), 33 ± 1.4. Further, the “mean adult lifespan of treated plate” value in assay [2] (16000 µM) worked out at 23.6 ± 1.1; in assay [2] (40000 µM), 24.7 ± 1.1; in [3] (100 µM), 27 ± 1.5; in [3] (500 µM), 21.7 ± 1.1; in [3] (800 µM) it was 24.9 ± 0.84; in assay [3] (1000 µM) it was 27.5 ± 1.4. Also, the “mean adult lifespan of treated plate” value came out at 26.5 ± 1.3 in assay [3] (4000 µM), 20.2 ± 1.1 in [3] (16000 µM) and 20.3 ± 1 in assay [3] (40000 µM). In addition, the “mean adult lifespan of treated cohort” value was determined as 21.4 ± 0.45 in assay [4]; 24.6 ± 0.58 in assay [5]; 24.6 ± 0.77 in assay [6]; 33.8 ± 0.71 in assay [7]; 24.9 ± 0.53 in assay [8]; 25.9 ± 0.89 in assay [9]. Moreover, the Kaplan-Meier median lifespan in assay [10] was found to be 21.9 ± 1.6; in assay [11], 25.6 ± 1.7; in assay [12], 25.9 ± 2.3; in assay [13], 34.7 ± 2.5; in assay [14] it was 25.3 ± 1.4; in assay [15], 26.3 ± 1.7. The Kaplan-Meier median lifespan in [16] (100 µM) is 23.3 ± 2.5; in assay [16] (500 µM) it was 25.3 ± 2.5; in assay [16] (800 µM), 23 ± 4.2; in assay [16] (1000 µM), 28 ± 3; in [16] (4000 µM) it was 22.8 ± 5.2; in assay [16] (16000 µM), 12.5 ± 1. Also, the Kaplan-Meier median lifespan in assay [16] (40000 µM) is 11 ± 1.1; in assay [17] (100 µM), 36 ± 4.6; in [17] (500 µM) it was 37.2 ± 4; in assay [17] (800 µM) it was 36.3 ± 4.7; in assay [17] (1000 µM), 37.2 ± 6.3; in assay [17] (4000 µM), 35 ± 5. For the same compound, the Kaplan-Meier median lifespan in assay [17] (16000 µM) is 23.8 ± 2.1; in [17] (40000 µM) it was 25.8 ± 2.1; in [18] (100 µM), 26.5 ± 1.7; in assay [18] (500 µM) it was 25 ± 2.2; in assay [18] (800 µM) it was 26; in assay [18] (1000 µM), 28 ± 2.5. Further, the Kaplan-Meier median lifespan in assay [18] (4000 µM) came out at 25.9 ± 5.6; in assay [18] (16000 µM) it was 19 ± 1.6; in assay [18] (40000 µM), 18.5 ± 1.9.

Take `O=C(O)CCCCC1CCSS1` (stereo not drawn) [alpha-lipoic acid]: the “mean adult lifespan of treated cohort” value in [4] came to 19.2 ± 0.4; in assay [5], 18.3 ± 0.61; in assay [6] it was 26.4 ± 0.83; in assay [7] it was 35.9 ± 0.96; in assay [8], 16.3 ± 0.61; in assay [9], 27.5 ± 0.76. In addition, the Kaplan-Meier median lifespan in assay [10] came to 19.2 ± 1.5; in [11], 18.4 ± 4.2; in assay [12], 25.8 ± 1.5; in assay [13], 37.2 ± 1.3; in [14], 15.6 ± 2.1; in assay [15] it was 28.4 ± 3.2.

For `CCCC(CCC)C(=O)O` [valproic acid], the “mean adult lifespan of treated cohort” value turned out to be 17.6 ± 0.42 in assay [4]; 18.2 ± 0.56 in assay [5]; 21.9 ± 0.85 in [6]; 32.9 ± 0.96 in assay [7]; 14.7 ± 0.48 in assay [8]; 21.8 ± 0.98 in assay [9]. Further, the Kaplan-Meier median lifespan in [10] was found to be 17.6 ± 0.54; in assay [11], 17.4 ± 3.1; in assay [12], 21.9 ± 1.2; in assay [13], 35.3 ± 1.9; in assay [14] it was 14.6 ± 0.98; in [15] it was 22 ± 2.6.

Turning to `O=c1c(O)c(-c2ccc(O)c(O)c2)oc2cc(O)cc(O)c12` [quercetin], the “mean adult lifespan of treated cohort” value in assay [4] was 17.6 ± 0.32; in assay [5], 17.4 ± 0.69; in assay [6], 25.2 ± 0.76; in assay [7] it was 33 ± 0.87; in assay [8] it was 15.9 ± 0.49; in [9], 26.5 ± 0.79. The Kaplan-Meier median lifespan in [10] is 17.8 ± 0.96; in assay [11] it was 15.2 ± 2.1; in assay [12] it was 24.8 ± 2.5; in assay [13] it was 35.5 ± 1.7; in [14] it was 15 ± 1.8; in assay [15], 28 ± 2.2.

`COc1cc(/C=C/C(=O)CC(=O)/C=C/c2ccc(O)c(OC)c2)ccc1O` [curcumin]: the “mean adult lifespan of treated cohort” value came out at 17.1 ± 0.34 in assay [4]; 19.5 ± 0.66 in assay [5]; 21.3 ± 0.66 in assay [6]; 30.5 ± 0.87 in [7]; 15.6 ± 0.46 in [8]; 21.9 ± 0.82 in assay [9]. For the same compound, the Kaplan-Meier median lifespan came out at 17.7 ± 0.82 in [10]; 19.3 ± 2 in assay [11]; 21.2 ± 2.8 in [12]; 30.7 ± 2.2 in assay [13]; 15.3 ± 1.6 in assay [14]; 23.2 ± 1.7 in assay [15].

For the compound `CC(=O)Oc1ccccc1C(=O)O` [aspirin], the “mean adult lifespan of treated cohort” value came to 17.9 ± 0.3 in assay [4]; 18.3 ± 0.55 in [5]; 28 ± 1.1 in assay [6]; 37.2 ± 1 in assay [7]; 17 ± 0.49 in assay [8]; 27 ± 0.81 in [9]. For the same compound, the Kaplan-Meier median lifespan in assay [10] amounted to 17.5 ± 1.1; in [11] it was 17.4 ± 4.3; in assay [12], 28.3 ± 4.4; in assay [13] it was 37.5 ± 1.9; in [14], 16.4 ± 1.4; in [15], 27.8 ± 3.7.
